# Test results from publication PMC12144419, “Early preclinical development of Mycobacteriumtuberculosis amino acid biosynthesis pathway inhibitor DRILS-1398 as a potential anti-TB drug” (iScience, 2025).
# Where “and” joins values, the source holds several entries; their conditions need not be identical. Equal values may be shown once. Entries after “also recorded” stand apart in the source; their conditions may differ. Read-outs that look alike come from different tables or passages of the source.
# Legend:
# [1] = system: M.tb H37Rv; assay: Histopathology (H&E, ZN stain) of lungs of infected mice; settings: for Granuloma in the lung: DRILS-1398 and DRILS-1398(F) 30 mg/kg, isoniazid 5 mg/kg; for Acid-fast bacilli load in lung, ZN staining: vs infected mice without drug
# [2] = molecular target: M.tb chorismate mutase (M.tb-CM) (Mycobacterium tuberculosis, UniProt P9WIB9); assay: CM assay (in vitro substrate competition enzymatic assay, chorismate to prephenate, OD 274 nm); type: biochemical
# Procedure: The activity of the CM enzyme was based on direct observation of the conversion of chorismate to prephenate at OD 274 nm.[32] The reaction volume of the assay was maintained at 100 μl. 1mM of the substrate, chorismic acid (Sigma) was pre-incubated at 37°C for 5 min in the buffer (containing 50mM Tris-HCl (pH 7.5), 0.5mM EDTA, 0.1 mg/mL bovine serum albumin, and 10 mM β-Mercaptoethanol). The reaction was started by adding 180 pmol of CM enzyme to the prewarmed chorismic acid solution. Inhibitory screening of the compounds against CM activity was measured at 100 nM to 50 μM concentration of the effectors. The reaction was allowed to proceed at 37°C and was terminated after 5 min with 100 μl of 1 N HCl. Disappearance of substrate was measured at 274 nm. A blank with no enzyme for every reaction was kept as a control to account for the non-enzymatic conversion of chorismate to prephenate.
# [3] = system: M.tb H37Rv cells; assay: In vitro amino acid supplementation (rescue) growth experiment; type: cell-based, Mycobacterium tuberculosis; settings: amino acid 100 μg/mL
# [4] = system: MDR-M.tb ATCC 35825; assay: Broth dilution MIC by turbidometry; type: cell-based; settings: Mycobacterium tuberculosis, ATCC35825
# [5] = system: M.tb. ATCC-27294 strain; assay: MIC against M.tb ATCC-27294; type: cell-based; settings: Mycobacterium tuberculosis, ATCC27294
# [6] = system: intracellular MDR-M.tb H37Rv (ATCC 35825) in activated THP-1 macrophages; assay: Intracellular efficacy THP-1 macrophage assay, MDR-M.tb ATCC 35825; type: cell-based, Mycobacterium tuberculosis; settings: for cfu reduction vs day 7 control, combination study: Fig 4E, DRILS-1398 15 μM, rifampicin 19.45 μM, alone or combined
# [7] = in vitro; type: in vitro ADME; settings: mouse, plasma
# Procedure: DRILS-1398 (5μM) was added to both sides of the membrane in an equilibrium dialysis system. Species-specific plasma (50% or 100%) was added to one side, and the system was allowed to reach equilibrium at 37 °C. LC-MS/MS measurements of compound concentration were performed on both sides of the membrane and the fraction of unbound compound was presented.[52]
# [8] = Single-dose oral pharmacokinetics in male BALB/c mice; settings: mouse, in vivo
# Procedure: Male BALB/c mice aged 8-9 weeks were used for experimentation after a minimum of 3 days of acclimatization.[38]^,[39]^,[40] Fasted animals were administered with DRILS-1398 or DRILS-1398 (F) in a recommended vehicle (1%(v/v) Tween 80 + 99% (v/v) of 0.5% (w/v) Carboxymethylcellulose sodium salt in ultrapure water) by oral route with a dose of 50 mg/kg body weight of DRILS-1398 or 10 mg/kg and 30 mg/kg for DRILS-1398(F) at a dose volume of 10 mL/kg b.w. Under mild isoflurane anesthesia, a blood specimen was collected into pre-labeled tubes containing anticoagulant (K2EDTA - 2 mg/mL blood) during the next 24 hours of post-dose (Table-PK study design chart). The collected blood specimens were centrifuged at 6000 rpm, 4°C for 10 min, and plasma was separated and stored at -80°C until analysis. […] Concentrations of analyte DRILS-1398 in mice plasma samples were determined using the Shimadzu LCMS-8045 LC-MS/MS system. The protocols were approved by the Institutional Animal Ethics Committee of the Preclinical Research Department, Anthem Biosciences Pvt. Ltd., Bangalore 560099, India (Study no for 50mg/kg PK study: N20084, (ABD/IASE/PR/185/19-22) and the study no for PK studies for 10mg/kg and 30mg/kg of DRILS-1398(F): ABD-8056 and ABD-7967A (ABD/IAEC/PR/89-17-20) respectively.
# [9] = Single-dose IV pharmacokinetics in male BALB/c mice; type: in vivo; settings: mouse, 10 mg/kg
# Procedure: The intravenous (IV) (10 mg/kg of DRILS-1398) dosing study on BALB/c male mice (n=3 per time point, not more than 2 bleeds per animal, total animals dosed n=12) was carried out on the following time points through saphenous veins; IV: 15 mins, 30 mins, 1, 2, 4, 6, 8 and 24 hr. Collected blood specimens were centrifuged at 6000rpm, 4°C for 10 minutes, and plasma was separated and stored at -80°C until analysis. […] Concentrations of analyte DRILS-1398 in mice plasma samples were determined using the Shimadzu LCMS-8045 LC-MS/MS system. The protocol was approved by the Institutional Animal Ethics Committee of the Preclinical Research Department, Anthem Biosciences Pvt. Ltd., Bangalore 560099, India (protocol number for 10 mg/kg IV PK study: ABD-7967B (ABD/IAEC/PR/89-17-20).
# [10] = Repeated dose 7-day toxicity study; type: in vivo, BALB/c mice
# Procedure: As per the guideline,[58]^,[59] 40 males and 40 females were assigned into four groups of ten animals/sex per group viz., Vehicle control (G1), Low dose (G2), Mid Dose (G3) and High dose (G4). The test item formulations were prepared freshly in Ultra-pure water type 1 as a vehicle. The vehicle alone was administered to the vehicle control (G1) animals. Test item formulations were administered daily once at dose levels of 125 (G2), 250 (G3) and 500 (G4) mg/kg b.w./day. All the animals were administered a dose volume of 10 mL/kg b.w. once daily for 7 consecutive days. All the animals were observed once daily for clinical signs, twice daily for mortality/morbidity, and on day 7 for detailed clinical examination. Body weights and feed consumption were recorded at weekly intervals. At the end of the experimental period (day 8), blood and harvested plasma specimens were analyzed for haematology and clinical chemistry parameters, respectively. Subsequently, the animals were euthanized and subjected to gross pathological examination. The specified organs were collected and preserved in 10% NBF for histopathological evaluation. The protocol was approved by the Institutional Animal Ethics Committee of the Preclinical Research Department, Anthem Biosciences Pvt. Ltd., Bangalore 560099, India. Study no: N23041 (ABD/IAEC/PR/296-23-24).
# [11] = microsomes; for Mouse microsomal stability: 3 µM
# [12] = physchem
# [13] = molecular target: CYP 2C9 (Homo sapiens, UniProt P11712); assay: biochemical
# Procedure: (§1) This study performed CYP inhibition assay using Vivid CYP P450 (1A2, 2C9, 2C19, 2D6, and 3A4) blue screening kits.[56] […] The fluorescent reading was taken using a microplate reader at excitation/emission wavelengths of 415/460 nm, respectively. The % of CYP inhibition of test/positive control at each tested concentration was calculated, and the IC50 value against each CYP isoform was plotted using Graph pad prism software.
# [14] = molecular target: CYP 2C19 (Homo sapiens, UniProt P33261); assay: biochemical
# Procedure: as §1
# [15] = molecular target: CYP 2D6 (Homo sapiens, UniProt P10635); assay: biochemical
# Procedure: as §1
# [16] = molecular target: CYP 3A4 (Homo sapiens, UniProt P08684); assay: biochemical
# Procedure: as §1
# [17] = system: Salmonella typhimurium TA98, TA100 and TA1537; assay: Bacterial reverse mutation test (Ames); settings: 3000.0, 949.5, 300.0, 94.9 and 30.0 μg/plate, with and without rat liver S9
# [18] = molecular target: CYP 1A2 (Homo sapiens, UniProt P05177); assay: Vivid CYP inhibition, fluorescent substrate method
# Procedure: as §1
# [19] = system: intracellular M.tb H37Rv (ATCC 27294) in activated THP-1 macrophages; assay: Intracellular efficacy THP-1 macrophage assay, M.tb H37Rv ATCC 27294; settings: for cfu reduction vs day 3 control, combination study / cfu reduction vs day 7 control, combination study: Fig 4D, DRILS-1398 15 μM, rifampicin 19.45 μM, alone or combined
# Procedure: The THP-1 cells were activated with PMA (phorbol 12-myristate-13-acetate) for differentiation into macrophages. After 72 hr of activation, the THP-1 macrophages were infected with M.tb H37Rv strain (ATCC-27294 and ATCC-35825) at a multiplicity of infection (MOI) of 1:10.[34]^,[35] The macrophage infection was allowed for 2 hrs at 37°C with 5% CO2. The media containing M.tb was discarded, and macrophage monolayers were washed twice with phosphate-buffered saline to remove the extracellular bacteria and replenished with fresh, complete RPMI. The M.tb-infected macrophages were exposed to compounds by transferring 200 μL of fresh media containing the respective concentrations of the compounds. Duplicate wells were lysed (0.05% SDS) at specific time points and enumerated to estimate the numbers of intracellular M.tb 2 hr post-infection. The 0.1 mL of lysate was serially diluted and plated onto Middle brook 7H11 agar plates for enumeration (read after 3 to 4 weeks) of live M.tb after compound treatment. After 3 and 7 day exposure to the compounds, the cells were treated the same way, and the live M.tb was enumerated. The efficacy of the test compound was assessed by comparing the M.tb counts from the respective days to day 0 and day 7.
# [20] = system: M.tb H37Rv; assay: In vivo efficacy study, M.tb H37Rv infected mice (CFU in lung and spleen); settings: 10-50 mg/kg on alternate days for four weeks
# [21] = system: M.tb-CM; design: method as in doi:10.1039/C1MD00148E; settings: read-out: IC50, inhibition of M.tb-CM; cited from earlier work
# [22] = Table S4, lung of infected treated mice
# [23] = up to 500 mg/kg b.w./day, 7 days
# Sequence of M.tb chorismate mutase (M.tb-CM) (P9WIB9 34-199): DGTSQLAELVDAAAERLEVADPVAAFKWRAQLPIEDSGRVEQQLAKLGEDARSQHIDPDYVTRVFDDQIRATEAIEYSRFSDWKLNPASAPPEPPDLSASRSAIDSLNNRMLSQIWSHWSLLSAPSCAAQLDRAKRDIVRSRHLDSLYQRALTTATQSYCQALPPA
# Sequence of CYP 3A4 (P08684 whole entry): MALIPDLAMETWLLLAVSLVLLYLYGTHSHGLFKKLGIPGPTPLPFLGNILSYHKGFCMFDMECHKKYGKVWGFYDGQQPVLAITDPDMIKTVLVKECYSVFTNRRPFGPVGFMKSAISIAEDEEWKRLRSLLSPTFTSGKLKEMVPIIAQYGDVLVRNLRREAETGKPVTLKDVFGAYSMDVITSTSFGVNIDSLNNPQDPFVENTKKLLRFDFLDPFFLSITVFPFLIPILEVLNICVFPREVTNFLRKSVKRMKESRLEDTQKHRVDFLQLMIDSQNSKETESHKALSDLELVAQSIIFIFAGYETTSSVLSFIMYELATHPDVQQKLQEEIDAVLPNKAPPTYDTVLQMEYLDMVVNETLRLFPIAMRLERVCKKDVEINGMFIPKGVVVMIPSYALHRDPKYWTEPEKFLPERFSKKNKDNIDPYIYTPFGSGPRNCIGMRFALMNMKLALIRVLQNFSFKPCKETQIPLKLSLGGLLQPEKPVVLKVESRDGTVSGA
# Sequence of CYP 2C19 (P33261 whole entry): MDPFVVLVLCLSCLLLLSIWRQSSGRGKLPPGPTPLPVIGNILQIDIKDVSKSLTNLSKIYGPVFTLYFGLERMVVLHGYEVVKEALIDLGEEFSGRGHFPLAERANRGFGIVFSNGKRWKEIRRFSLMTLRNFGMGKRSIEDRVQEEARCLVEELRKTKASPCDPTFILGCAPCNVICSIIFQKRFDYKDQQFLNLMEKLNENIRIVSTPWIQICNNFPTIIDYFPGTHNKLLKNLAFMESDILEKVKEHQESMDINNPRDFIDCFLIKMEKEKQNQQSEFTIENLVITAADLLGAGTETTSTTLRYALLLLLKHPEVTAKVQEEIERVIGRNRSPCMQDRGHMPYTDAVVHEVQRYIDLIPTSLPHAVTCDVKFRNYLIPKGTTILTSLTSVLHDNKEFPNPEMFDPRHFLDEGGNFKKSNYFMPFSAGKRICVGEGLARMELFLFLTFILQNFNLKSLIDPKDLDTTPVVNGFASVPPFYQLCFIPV
# Sequence of CYP 1A2 (P05177 whole entry): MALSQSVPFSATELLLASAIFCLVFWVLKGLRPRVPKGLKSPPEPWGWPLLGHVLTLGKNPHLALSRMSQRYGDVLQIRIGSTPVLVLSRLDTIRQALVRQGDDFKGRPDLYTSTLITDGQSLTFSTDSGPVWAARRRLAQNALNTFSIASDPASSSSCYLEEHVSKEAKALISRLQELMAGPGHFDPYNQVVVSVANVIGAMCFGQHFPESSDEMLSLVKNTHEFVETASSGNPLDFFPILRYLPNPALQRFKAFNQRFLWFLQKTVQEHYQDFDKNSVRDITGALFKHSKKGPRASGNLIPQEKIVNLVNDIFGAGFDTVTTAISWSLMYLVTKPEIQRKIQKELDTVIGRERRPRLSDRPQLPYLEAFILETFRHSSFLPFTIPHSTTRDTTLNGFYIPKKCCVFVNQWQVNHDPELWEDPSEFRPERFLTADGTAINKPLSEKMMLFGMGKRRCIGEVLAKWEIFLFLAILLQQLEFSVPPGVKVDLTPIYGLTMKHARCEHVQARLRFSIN
# Sequence of CYP 2C9 (P11712 whole entry): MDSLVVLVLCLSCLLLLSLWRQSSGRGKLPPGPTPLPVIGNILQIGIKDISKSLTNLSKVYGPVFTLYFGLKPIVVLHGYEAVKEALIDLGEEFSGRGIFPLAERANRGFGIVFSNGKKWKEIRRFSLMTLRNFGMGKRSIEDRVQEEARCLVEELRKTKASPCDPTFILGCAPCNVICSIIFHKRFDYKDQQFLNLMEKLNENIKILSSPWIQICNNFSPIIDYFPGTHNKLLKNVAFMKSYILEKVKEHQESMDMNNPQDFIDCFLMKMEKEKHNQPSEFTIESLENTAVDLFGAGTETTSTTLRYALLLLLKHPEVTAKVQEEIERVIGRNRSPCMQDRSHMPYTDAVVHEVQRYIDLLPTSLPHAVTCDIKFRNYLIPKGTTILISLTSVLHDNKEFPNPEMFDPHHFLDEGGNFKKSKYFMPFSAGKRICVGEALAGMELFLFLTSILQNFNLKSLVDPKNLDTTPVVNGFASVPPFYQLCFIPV
# Sequence of CYP 2D6 (P10635 whole entry): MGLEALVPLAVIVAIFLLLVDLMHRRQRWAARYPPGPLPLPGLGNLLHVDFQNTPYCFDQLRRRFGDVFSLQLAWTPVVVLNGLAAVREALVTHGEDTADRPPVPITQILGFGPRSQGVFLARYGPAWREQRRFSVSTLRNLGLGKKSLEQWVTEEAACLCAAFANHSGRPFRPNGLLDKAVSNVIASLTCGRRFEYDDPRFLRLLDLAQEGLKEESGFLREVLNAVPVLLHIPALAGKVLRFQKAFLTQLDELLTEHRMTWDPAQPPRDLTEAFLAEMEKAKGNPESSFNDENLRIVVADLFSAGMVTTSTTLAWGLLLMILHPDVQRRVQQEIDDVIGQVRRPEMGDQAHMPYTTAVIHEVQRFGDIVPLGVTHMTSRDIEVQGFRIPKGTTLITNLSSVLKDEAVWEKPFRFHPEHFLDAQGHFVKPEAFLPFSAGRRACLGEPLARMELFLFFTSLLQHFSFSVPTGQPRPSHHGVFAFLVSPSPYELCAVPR
smiles,measurement,setting,value
"NNC(=O)c1ccncc1 [Isoniazid, reference compound]",Granuloma in the lung,[1],no signs of granuloma
same,Granuloma,[1]; [22],-
same,ZN stain (Acid Fast Bacilli),[1]; [22],+
same,"Acid-fast bacilli load in lung, ZN staining",[1],minimal presence of bacilli
CCCc1nn(C)c2c(-c3c[nH]c4ccc(Cl)cc34)nc(-c3ccc(Cl)cc3)nc12 [DRILS-1398],IC50,"[2]; IC50, inhibition of M.tb-CM activity, n = 3",3 µM and ~3 µM
same,IC90,"[2]; read-out: IC90, inhibition of M.tb-CM activity",10 µM
same,"Growth of M.tb H37Rv with compound, amino acids added after 24 h","[3]; 4 μg/mL compound, until 96 h",showed inhibitory effects up to 24 h
same,Growth of M.tb H37Rv with compound and tyrosine or phenylalanine added at time 0,"[3]; ~10 μM compound, 24-96 h",amino acid supplementation rescued the cells from the inhibitory effects
same,MIC,[4],4 µg/mL and ~10 µM
same,MIC,[5]; M.tb ATCC-27294,6.53 µg/mL
same,MIC,"[5]; M.tb ATCC-27294, converted",~15 µM
same,cfu reduction vs day-3 control,"[6]; Fig 4C, day 3, C1: DRILS-1398 15 μM, rifampicin 13.16 μM",0.40 log10 cfu/mL
same,cfu reduction vs day-7 control,"[6]; Fig 4C, day 7, C1: DRILS-1398 15 μM, rifampicin 13.16 μM",0.70 log10 cfu/mL
same,"cfu reduction vs day 7 control, combination study",[6]; day 7,0.77 log10 cfu/mL
same,fraction unbound at 5 µM,[7],~0.0184
same,AUC(0-inf),"[8]; male, BALB/c, po, 50 mg/kg",21400 ng·h/mL
same,AUCextrap,"[8]; male, BALB/c, po, 50 mg/kg",10.30%
same,Cmax,"[8]; male, BALB/c, po, 50 mg/kg",1580 ng/mL
same,MRT last,"[8]; male, BALB/c, po, 50 mg/kg",7.52 h
same,Tmax,"[8]; male, BALB/c, po, 50 mg/kg",4 h
same,AUC(0-t),"[8]; male, BALB/c, oral 50 mg/kg",19200 ng·h/mL
same,half-life,"[8]; male, BALB/c, oral 50 mg/kg",6.95 h
same,Adverse clinical signs during PK treatment,"[8]; po, 50 mg/kg",did not show any adverse clinical signs
same,Approximate free drug concentration in blood plasma,[9]; in vivo,~0.4 µM
same,clearance,[9]; in vivo,35 mL/min/kg
same,half-life,"[9]; plasma, IV 10 mg/kg",~8.25 h
same,"Clinical signs of toxicity, mortality/morbidity","[10]; oral gavage up to 500 mg/kg b.w./day once daily for 7 days, both genders",no adverse clinical signs of toxicity and mortality/morbidity
same,"Effects on body weight, weight gain, feed consumption, hematological and clinical chemistry parameters",[10]; [23],No treatment-related adverse effects
same,Histopathological evaluation of examined tissues,[10]; [23],no treatment-related adverse effects
same,Mouse microsomal stability,[11]; 2 min,56.45%
same,Mouse microsomal stability,[11]; 5 min,53.42%
same,Mouse microsomal stability,[11]; 0.25 h,42.18%
same,Mouse microsomal stability,[11]; 0.75 h,24.61%
same,Mouse microsomal stability,[11]; 2 h,26.57%
same,"Microsomal stability, verdict",[11]; mouse,moderately stable
same,solubility,[12],≥ 50 mg/mL
same,IC50,[13],12.2 µM
same,IC50,[14],13.7 µM
same,IC50,[15],> 30 µM
same,IC50,[16],> 30 µM
same,Mutagenic potential,[17],did not show any mutagenic potential; also recorded: non-mutagenic
same,IC50,[18],> 30 µM
same,Granuloma in the lung,[1],no signs of granuloma
same,Granuloma,[1]; [22],-
same,Necrosis of the lung tissue,"[1]; mouse, in vivo",not observed
same,"Acid-fast bacilli load in lung, ZN staining",[1],significant decrease in bacilli load
same,cfu reduction vs day-3 control,"[19]; Fig 4B, day 3, C1: DRILS-1398 15 μM, rifampicin 13.16 μM",0.59 log10 cfu/mL
same,cfu reduction vs day-7 control,"[19]; Fig 4B, day 7, C1: DRILS-1398 15 μM, rifampicin 13.16 μM",1.00 log10 cfu/mL
same,"cfu reduction vs day 3 control, combination study",[19]; day 3,0.42 log10 cfu/mL
same,"cfu reduction vs day 7 control, combination study",[19]; day 7,0.98 log10 cfu/mL
same,Clearance of M.tb H37Rv infection in lungs and spleen (CFU),[20],successful in clearing M.tb infection from the lungs and spleen; also recorded: effectively cleared
"CO[C@H]1/C=C/O[C@@]2(C)Oc3c(C)c(O)c4c(O)c(c(/C=N/N5CCN(C)CC5)c(O)c4c3C2=O)NC(=O)/C(C)=C\C=C\[C@H](C)[C@H](O)[C@@H](C)[C@@H](O)[C@@H](C)[C@H](OC(C)=O)[C@@H]1C [Rifampicin, reference compound]","cfu reduction vs day 7 control, combination study",[6]; day 7,1.96 log10 cfu/mL
same,"cfu reduction vs day 3 control, combination study",[19]; day 3,1.26 log10 cfu/mL
same,"cfu reduction vs day 7 control, combination study",[19]; day 7,2.28 log10 cfu/mL
CS(=O)(=O)Nc1ccc(F)cc1-c1cc2cc(F)ccc2n1S(C)(=O)=O [B],IC50,[21],~17 µM
